# Assay results taken from patent US8410141B2, “Insecticidal arylpyrrolines” (Bayer Cropscience AG, priority 2009, dated 2013).
# Assays:
# Assay type in all cases: in vivo
# [1] = system: mustard beetle larvae (Phaedon cochleariae); assay: Phaedon cochleariae test, PHAECO spray application; settings: 100 g/ha; Chinese cabbage leaf-disks sprayed; after 7 days
# Method: Solvent: 78.0 parts by weight of acetone
# • 1.5 parts by weight of dimethylformamide Emulsifier: 0.5 parts by weight of alkylaryl polyglycolether
# (§1) To produce a suitable preparation of active compound, 1 part by weight of active compound is mixed with the stated amount of solvent and emulsifier, and the concentrate is diluted with emulsifier-containing water to the desired concentration.
# Chinese cabbage (Brassica pekinesis) leaf-disks are sprayed with a preparation of the active ingredient of the desired concentration. Once dry, the leaf disks are infested with mustard beetle larvae (Phaedon cochleariae).
# After 7 days mortality in % is determined. 100% means that all beetle larvae have been killed and 0% means that none of the beetle larvae have been killed.
# [2] = system: fall armyworm larvae (Spodoptera frugiperda); assay: Spodoptera frugiperda test, SPODFR spray application; settings: 100 g/ha; maize leaf sections sprayed; after 7 days
# Excerpt: (§2) Solvent: 78.0 parts by weight acetone
# (§3) • 1.5 parts by weight dimethylformamide Emulsifier: 0.5 parts by weight alkylarylpolyglycolether
# To produce a suitable preparation of the active compound, 1 part by weight of active compound is mixed with the stated amount of solvent and emulsifier, and the concentrate is dilutes with emulsifier-containing water to the desired concentration. Maize (Zea mais) leaf sections are sprayed with a preparation of the active ingredient of the desired concentration. Once dry, the leaf sections are infested with fall armyworm larvae (Spodoptera frugiperda).
# After 7 days mortality in % is determined. 100% means that all caterpillars have been killed and 0% means that none of the caterpillars have been killed.
# [3] = system: two spotted spidermite (Tetranychus urticae), OP-resistant; assay: Tetranychus urticae test, OP-resistant (TETRUR spray application); settings: 100 g/ha; French beans sprayed; all stages; after 6 days
# Method: as §2, §3
# as §1, with “concentration. French beans (Phaseolus vulgaris) which are heavily infested with all stages of the two spotted spidermite (Tetranychus urticae), are sprayed with a preparation of the active ingredient at the desired concentration.” for “concentration.”
# After 6 days mortality in % is determined. 100% means that all spider mites have been killed and 0% means that none of the spider mites have been killed.
# [4] = system: green peach aphid (Myzus persicae); assay: Myzus test, oral (MYZUPE O); settings: 100 g/ha; aphids suck on preparation; after 5 days
# Method: Solvent: 80 parts by weight acetone
# To produce a suitable preparation of active compound, 1 part by weight of active compound ist mixed with the stated amount of solvent and emulsifier, and the concentrate is diluted with emulsifier-containing water to the desired concentration. Containers are infested with a mixed population of the green peach aphid (Myzus persicae), the aphids suck on a preparation of the active compound at the desired concentration.
# After 5 days mortality in % is determined. 100% means that all aphids have been killed; 0% means that none of the aphids have been killed.
compound,measurement,setting,value
CN(C)c1c(Cl)cc(C2(C(F)(F)F)CN=C(c3ccc(-n4cncn4)c(C#N)c3)C2)cc1Cl (stereo not shown) [1-3],mortality,[1],100%
same,mortality,[2],83%
same,mortality,[3],100%
same,mortality,[4],100%
